Source: the supplement of paper PMC10949913

Experiments:
Conditions in all cases: 48 h
[1] = test system: CU-ACC1; test: area under concentration-response curve (viability) (AUC (a.u.)); higher = less active
Summary of the method: (§1)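 In 1,536-well plates, 500–1,000 cells/well of three adrenocortical carcinoma cell lines in 5 µL medium received 23 nL of each library compound across 11 concentrations. At 48 h, CellTiter-Glo was incubated for 15 minutes at room temperature and luminescence measured. Per-plate normalisation used vehicle and empty-well controls, and only inhibitory or non-responding curve classes were kept when fitting concentration-response curves for AC50 and area under the curve.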

[2] = test system: CU-ACC1; test: AC50 viability; higher = less potent
Summary of the method: as §1

[3] = test system: NCI-H295R; test: area under concentration-response curve (viability) (AUC (a.u.)); higher = less active
Summary of the method: as §1

[4] = test system: CU-ACC2; test: as above
Summary of the method: as §1

[5] = test system: NCI-H295R; test: AC50 viability; higher = less potent
Summary of the method: as §1

Row | SMILES | area under concentration-response curve [1] | AC50 viability [2] [µM] | area under concentration-response curve [3] | area under concentration-response curve [4] | AC50 viability [5] [µM]
1 | N#CC1(c2cccc(C(=O)Nc3cc(Oc4ccc5nc(NC(=O)C6CC6)sc5n4)ccc3F)c2Cl)CC1 | 390 | 4.17 | – | – | –
2 | C[S+](=O)([O-])c1ccc(-c2cnc(NCc3ccco3)n3cnnc23)cc1 | 357 | 2.09 | – | – | –
3 | Cc1c(NC(=O)OCC2COCCN2)cn2ncnc(Nc3ccc4c(cnn4Cc4cccc(F)c4)c3)c12 (configuration not stated) | 433 | 23.5 | – | – | –
4 | CCOC1=CC(=CC=C1C/2=N/[C@@](C)(C3=CC=C(Cl)C=C3)[C@](C)(N2C(=O)N4CCN(CC4)CC(=O)N5CCOCC5)C6=CC=C(Cl)C=C6)C(C)(C)C | 440 | 16.3 | – | – | –
5 | O=C(Nc1cccc(C(F)(F)F)c1)Nc1cc([S+](=O)([O-])NC2CC2)ccc1-c1ccsc1 | 525 | – | 514 | 568 | 23.5
6 | CCN(CC)CCNC(=O)c1c(C)[nH]c(/C=C2\C(=O)Nc3ccc(F)cc32)c1C | 528 | – | 456 | 529 | 9.34
7 | C/C=C(\C)C(=O)N[C@@H](c1ccccc1)[C@@H](O)C(=O)O[C@H]1C[C@@]2(O)[C@@H](OC(=O)c3ccccc3)[C@@H]3[C@]4(OC(C)=O)CO[C@@H]4C[C@H](O)[C@@]3(C)C(=O)[C@H](OC(C)=O)C(=C1C)C2(C)C | 447 | – | 418 | 515 | 0.833
8 | c1cn2cc(-c3ccc4cn[nH]c4c3)nc(Nc3ccc(N4CCOCC4)cc3)c2n1 | 509 | – | 497 | 568 | 7.42
9 | C[C@H](CN(C)C)Oc1nc(Nc2cc3cccc(Cl)c3cn2)cnc1C#N | 491 | – | 456 | 585 | 14.8
10 | C[C@H]1CCC/C=C/C2C[C@H](O)C[C@H]2[C@H](O)/C=C/C(=O)O1 (some centres not stated) | 390 | – | 346 | 389 | 0.263
11 | COc1cc(C(N)=O)ccc1NC(=O)[C@@H]1N[C@@H](CC(C)(C)C)[C@@]2(C(=O)Nc3cc(Cl)ccc32)[C@H]1c1cccc(Cl)c1F | 495 | – | 536 | 604 | 20.9
12 | CCOC(=O)[C@H](CCc1ccccc1)N[C@@H](C)C(=O)N1CCC[C@H]1C(=O)O | 300 | – | 417 | 458 | 10.5
13 | CO[C@H]1C[C@H]2OC[C@@]2(OC(C)=O)[C@H]3[C@H](OC(=O)C4=CC=CC=C4)[C@]5(O)C[C@H](OC(=O)[C@H](O)[C@@H](NC(=O)OC(C)(C)C)C6=CC=CC=C6)/C(=C(/[C@@H](OC)C(=O)[C@]13C)C5(C)C)C | 520 | – | 382 | 565 | 0.934
14 | CCC1=C[C@@H]2CN(C1)Cc1c([nH]c3ccccc13)[C@@](C(=O)OC)(c1cc3c(cc1OC)N(C)[C@H]1[C@@](O)(C(=O)OC)[C@H](OC(C)=O)[C@]4(CC)C=CCN5CC[C@]31[C@@H]54)C2 | 507 | – | 473 | 573 | 4.56
15 | C[C@H]1Oc2cc(cnc2N)-c2c(nn(C)c2C#N)CN(C)C(=O)c2ccc(F)cc21 | 529 | – | 505 | 557 | 23.5
16 | CN1\C(=C(O)/C2=C(C=C(Cl)S2)[S+]1([O-])=O)C(=O)NC3=NC=CC=C3 | 434 | – | 380 | 421 | 0.118
17 | Nc1nccc(-c2ccc3noc(-c4ccc(Cl)cc4)c3c2)n1 | 344 | – | 354 | 345 | 0.263
18 | COc1ccc(-n2c(SCCCN3C(=O)c4cccc5cccc(c45)C3=O)nnc2-c2ccncc2)cc1 | 422 | – | 406 | 406 | 3.32
19 | CN(C)C/C=C/C(=O)Nc1cccc(C(=O)Nc2cccc(Nc3ncc(Cl)c(-c4c[nH]c5ccccc45)n3)c2)c1 | 434 | – | 444 | 437 | 1.66
20 | N#Cc1c(NC(=O)c2cccc3ccccc23)sc2c1CCCC2 | 480 | – | 458 | 551 | 0.372

Row | SMILES | area under concentration-response curve [1] | AC50 viability [2] [µM] | area under concentration-response curve [3] | area under concentration-response curve [4] | AC50 viability [5] [µM]
21 | Cc1ccc([S+](=O)([O-])Nc2cc(-c3ccc(C#N)s3)ccc2C)cc1 | 506 | – | 373 | 507 | 0.0417
22 | CC(/C=C/[C@@H]1C[C@]1(C)c1ccc2c(c1)C(C)(C)CCC2(C)C)=C\C(=O)O | 525 | – | 538 | 650 | 18.6
23 | COc1ccc(-c2ccc3c(N4CCOCC4)nc(N4C[C@@H](C)O[C@@H](C)C4)nc3n2)cc1CO | 464 | – | 468 | 469 | 0.934
24 | CCC[C@H](N[C@H]1CCc2cc(F)cc(F)c2C1)C(=O)Nc1cn(C(C)(C)CNCC(C)(C)C)cn1 | 522 | – | 455 | 584 | 23.5
25 | COc1ccc(-n2c(C)c([N+](=O)[O-])c3ccc(O)cc32)cc1 | 519 | – | 549 | 615 | 14.8
26 | COc1cc(OC)c(/C=C/[S+](=O)([O-])Cc2ccc(OC)c(OP(=O)(O)O)c2)c(OC)c1 | 503 | – | 407 | 484 | 0.0295
27 | COc1ccc2c(c1OC)C(=O)O[C@H]2[C@H]1c2c(cc3c(c2OC)OCO3)CCN1C | 493 | – | 519 | 608 | 20.9
28 | COc1cc([C@@H]2c3cc4c(cc3[C@@H](O[C@@H]3O[C@@H]5CO[C@@H](c6cccs6)O[C@H]5[C@H](O)[C@H]3O)[C@H]3COC(=O)[C@H]23)OCO4)cc(OC)c1O | 509 | – | 532 | 608 | 11.8
29 | COc1cc(NCc2ccc3nc(N)nc(N)c3c2C)cc(OC)c1OC | 447 | – | 446 | 476 | 20.9
30 | CCCCc1ccc2[nH]c(NC(=O)OC)nc2c1 | 480 | – | 438 | 511 | 0.148
31 | NC(=O)[C@@H](CCC(F)(F)F)N(Cc1ccc(-c2ncon2)cc1F)[S+](=O)([O-])c1ccc(Cl)cc1 | 441 | – | 469 | 476 | 20.9
32 | Cc1[nH]c2ccccc2c1CCNCc1ccc(/C=C/C(=O)NO)cc1 | 378 | – | 376 | 403 | 4.17
33 | CCCCN(CCCC)CCC(O)c1cc2c(Cl)cc(Cl)cc2c2cc(C(F)(F)F)ccc12.Cl (configuration not stated) | 538 | – | 548 | 615 | 23.5
34 | Cc1cc(Nc2nc(N[C@@H](C)c3ncc(F)cn3)ncc2Cl)n[nH]1 | 472 | – | 488 | 544 | 14.8
35 | C/C(=C\c1csc(C)n1)[C@@H]1C[C@@H]2O[C@]2(C)CCC[C@H](C)[C@H](O)[C@@H](C)C(=O)C(C)(C)[C@@H](O)CC(=O)N1 | 478 | – | 460 | 485 | 2.09
36 | Nc1ncnc2c1ncn2[C@@H]1O[C@H](CO)C[C@H]1O | 550 | – | 528 | 612 | 20.9
37 | Cc1cc2c(F)c(Oc3ncnn4cc(OCC(C)OC(=O)C(C)N)c(C)c34)ccc2[nH]1 (configuration not stated) | 473 | – | 481 | 468 | 18.6
38 | COc1ccc(-c2oc3ncnc(N)c3c2-c2ccc(NC(=O)Nc3cc(C(F)(F)F)ccc3F)cc2)cc1 | 469 | – | 471 | 518 | 13.2
39 | CC(C)NC[C@@H](C(=O)N1CCN(c2ncnc3c2[C@H](C)C[C@H]3O)CC1)c1ccc(Cl)cc1 | 487 | – | 417 | 555 | 3.72
40 | COc1cccc(-c2cc(F)ccc2C2Cc3nc(N)nc(C)c3C(=O)N2)n1 (configuration not stated) | 379 | – | 403 | 413 | 0.59

Row | SMILES | area under concentration-response curve [1] | AC50 viability [2] [µM] | area under concentration-response curve [3] | area under concentration-response curve [4] | AC50 viability [5] [µM]
41 | Nc1nc2ccc(OC(F)(F)F)cc2s1 | 493 | – | 503 | 431 | 0.00372
42 | CC[C@]1(O)C[C@H]2CN(CCC3=C([NH]C4=C3C=CC=C4)[C@@](C2)(C(=O)OC)C5=CC6=C(C=C5OC)N(C=O)[C@H]7[C@](O)([C@H](OC(C)=O)[C@]8(CC)\C=C/CN9CC[C@]67[C@H]89)C(=O)OC)C1 | 504 | – | 471 | 590 | 3.32
43 | NC/1=N/C2=C([NH]C=N2)C(=S)N1 | 511 | – | 533 | 609 | 10.5
44 | CCn1c(-c2nonc2N)nc2c(C#CC(C)(C)O)ncc(OC[C@H]3CCCNC3)c21 | 369 | – | 442 | 524 | 4.17
45 | Cc1nc(NC(=O)N2CCCC2C(N)=O)sc1-c1ccnc(C(C)(C)C(F)(F)F)c1 (configuration not stated) | 531 | – | 548 | 626 | 13.2
46 | COC1=CC=C(C=C1)C2=NC3=CC(=CC=C3[NH]2)/C4=N/NC(=O)CC4C (configuration not stated) | 532 | – | 541 | 632 | 18.6
47 | Oc1ccc([C@@H]2Oc3ccc(O)cc3[C@@H]3CCC[C@@H]32)cc1 | 485 | – | 500 | 535 | 13.2
48 | Cc1cccc(/C=N/Nc2cc(N3CCOCC3)nc(OCCc3ccccn3)n2)c1 | 531 | – | 518 | 573 | 18.6
49 | O=C(/C=C/c1cccnc1)NCCCCC1CCN(C(=O)c2ccccc2)CC1 | 300 | – | 403 | 355 | 0.0209
50 | COc1ccc(/C=C\c2cc(OC)c(OC)c(OC)c2)cc1O | 505 | – | 333 | 474 | 0.00934
51 | C[N]1N=CC2=C1C=C(C(=C2)OC3=CC=C(NC(=O)\C4=C\C=C(\C)N(C4=O)C5=CC=C(F)C=C5)C=C3F)C6=C[NH]N=C6 | 508 | – | 539 | 626 | 7.42
52 | COc1ccc([S+](=O)([O-])Nc2cc(-c3csc(C#N)c3)ccc2C)cc1 | 489 | – | 393 | 529 | 0.0934
53 | O=C(NC1CC1)c1cccc(-c2ccc3c(NC(=O)C4CC4)n[nH]c3c2)c1 | 495 | – | 496 | 542 | 20.9
54 | CC(C)(C)C1=CC(=C(NC(=O)C/2=C/NC3=C(C=CC=C3)C2=O)C=C1O)C(C)(C)C | 532 | – | 426 | 572 | 18.6
55 | c1ccc(CNc2nc(N3CCOc4ccccc43)nc3c2CCCC3)cc1 | 449 | – | 481 | 528 | 20.9
56 | COC(=O)[C@@H]1[C@H]2C[C@H]3c4[nH]c5ccccc5c4CCN3C[C@@H]2CC[C@@H]1O | 443 | – | 442 | 458 | 18.6
57 | CC(C)n1ncnc1-c1cn2c(n1)-c1ccc(O[C@@H](C)C(N)=O)cc1OCC2 | 364 | – | 491 | 582 | 1.05
58 | COc1cc(OC)c(/C=C/[S+](=O)([O-])Cc2ccc(OC)c(NCC(=O)[O-])c2)c(OC)c1 | 464 | – | 386 | 479 | 0.059
59 | C=CCc1cccc(/C=N/NC(=O)CN2CCN(Cc3ccccc3)CC2)c1O | 523 | – | 587 | 650 | 26.3
60 | CCN1CCN(Cc2ccc(NC(=O)c3ccc(C)c(NC(=O)c4cncc(-c5cccs5)c4)c3)cc2C(F)(F)F)CC1 | 501 | – | 432 | 521 | 7.42
